Data published in patent US7273863B1, “Benzophenones as inhibitors of reverse transcriptase” (SmithKline Beecham Corporation, priority 1999, dated 2007).

Key:
WTRVA = assay: HeLa cell assay (HIV-LTR β-galactosidase reporter); assay type: cell-based, HIV-1; settings: Human immunodeficiency virus 1, Virus Type WTRVA, read-out: IC50 (nM) Range
Procedure: (§1) The HeLa cell assay was performed according to a modification of Kimpton J. and Emerman M., Detection of replication-competent and pseudotyped human immunodeficiency virus with a sensitive cell line on the basis of activation of an integrated β-galactosidase gene, J. Virol. 66:2232-2239 (1992), in which HIV-1 infection is detected by the activation of an HIV-LTR driven β-galactosidase reporter that is integrated into the genome of a CD4^+ HeLa cell line. Quantitation of β-galactosidase is achieved by measuring the activation of a chemiluminescent substrate (Tropix). The concentration of each compound required to inhibit 50% (IC50) of the HIV-1 induced β-galactosidase signal, relative to untreated controls, was determined for each isogenic, recombinant virus.
(§2) HeLa-CD4-LTR-β-gal cells were obtained from the NIH AIDS Research and Reference Reagent Program. Cells were propagated in DMEM containing 10% fetal bovine serum, 0.2 mg/ml geneticin and 0.1 mg/ml hygromycin B. Cells were routinely split by trypsinization when confluency reached 80% (approximately every 2 to 3 days).
(§3) DNA encoding the HIV-1 reverse transcriptase was subcloned from a M13 phage into a general shuttle vector, pBCSK+, as a ˜1.65 kbp EcoRI/HindIII ended DNA fragment. The HIV DNA insert of the resulting plasmid, pRT2, was completely sequenced on both strands prior to use in site directed mutagenesis experiments. Specific amino acid replacements were made using Stratagene Quick Change reagents and mutagenic oligonucleotides from Oligos. Following mutagenesis, the entire mutant RT coding sequence was verified by sequencing both DNA strands.
(§4) Mutant HIV-1 strains were isolated by a modified Recombinant Virus Assay (Kellam P. and Larder B., Recombinant virus assay: a rapid, phenotypic assay for assessment of drug susceptibility of human immunodeficiency virus type 1 isolates, Antimicrobial Agents and Chemotherapy, 38:23-30, 1994). 1×10^7 Jurkat T-cells (maintained in RPMI containing 10% fetal bovine serum, split 1:5 every 5 to 6 days) were co-transfected with EcoRI/HindIII digested mutant RT plasmid and Bst EII-digested HIV-1HXB2ΔRT DNA in the presence of DMRIE-C transfection reagent (Gibco) according to supplier's recommended protocol. Each mutant RT coding sequence was crossed into the RT-deleted HIV-1 viral DNA backbone by in vivo homologous recombination. Transfected cell cultures were expanded and monitored until syncitia formation and CPE were extensive. Virus was harvested by clear spin of the culture supernatants and frozen at −80 C as primary stock. Recombinant progeny virus was sequenced in the RT region to confirm the mutant genotype. Virus stocks were further expanded by infection of Jurkat cells, harvested and stored as frozen aliquots. Stocks were titered in HeLa MAGI cells for assay.
(§5) The HIV-1HXB2 mutants were titered in the HeLa MAGI assay system to determine the relative light units (RLU) per ml, a measure of infectivity relevant for this assay system. Virus stocks were diluted in a 2-fold series into DMEM containing 10% fetal bovine serum plus 20 ug/ml DEAE-dextran and assayed as described in the Experimental Protocol section, below.
(§6) 96-well microtiter plate(s) (Costar #3598) were seeded with 3×10^3 HeLa-CD4-LTR-β-gal in 100 μl DMEM containing 10% fetal bovine serum. Plates were placed in a 37° C., 5% CO2 humidified incubator overnight. The following day, mutant virus stocks were thawed in a room temperature water bath and diluted into DMEM containing 10% fetal bovine serum and 20 μg/ml DEAE-dextran to achieve an input of 1500 to 2000 RLU/ml. All media was removed with an 8 channel manifold aspirator and 35 μl (50 to 70 total RLUs) of diluted virus was added to each well for virus adsorption. Plates were placed in a 37° C., 5% CO2 humidified incubator for 1.5 to 2 hours.
(§7) Compound titration plates were prepared at 1.35× final concentration during the virus adsorption period. […]

[1] = system: isogenic HIV-1 RT mutant virus V108I/Y181C; assay: HeLa cell assay (HIV-LTR β-galactosidase reporter); assay type: cell-based; settings: Human immunodeficiency virus 1, HeLa, read-out: IC50 (nM) Range
Procedure: as §1, §2, §3, §4, §5, §6, §7

[2] = system: isogenic HIV-1 RT mutant virus P225H; assay: HeLa cell assay (HIV-LTR β-galactosidase reporter); assay type: cell-based; settings: Human immunodeficiency virus 1, HeLa, read-out: IC50 (nM) Range
Procedure: as §1, §2, §3, §4, §5, §6, §7

[3] = system: isogenic HIV-1 RT mutant virus V106I/Y181C; assay: HeLa cell assay (HIV-LTR β-galactosidase reporter); assay type: cell-based; settings: Human immunodeficiency virus 1, HeLa, read-out: IC50 (nM) Range
Procedure: as §1, §2, §3, §4, §5, §6, §7

[4] = system: isogenic HIV-1 RT mutant virus K103N/G190A; assay: HeLa cell assay (HIV-LTR β-galactosidase reporter); assay type: cell-based; settings: Human immunodeficiency virus 1, HeLa, read-out: IC50 (nM) Range
Procedure: as §1, §2, §3, §4, §5, §6, §7

[5] = system: isogenic HIV-1 RT mutant virus K103N/Y181C; assay: HeLa cell assay (HIV-LTR β-galactosidase reporter); assay type: cell-based; settings: Human immunodeficiency virus 1, HeLa, read-out: IC50 (nM) Range
Procedure: as §1, §2, §3, §4, §5, §6, §7

[6] = system: isogenic HIV-1 RT mutant virus G190A; assay: HeLa cell assay (HIV-LTR β-galactosidase reporter); assay type: cell-based; settings: Human immunodeficiency virus 1, HeLa, read-out: IC50 (nM) Range
Procedure: as §1, §2, §3, §4, §5, §6, §7

[7] = system: isogenic HIV-1 RT mutant virus Y181C; assay: HeLa cell assay (HIV-LTR β-galactosidase reporter); assay type: cell-based; settings: Human immunodeficiency virus 1, HeLa, read-out: IC50 (nM) Range
Procedure: as §1, §2, §3, §4, §5, §6, §7

[8] = system: isogenic HIV-1 RT mutant virus P236L; assay: HeLa cell assay (HIV-LTR β-galactosidase reporter); assay type: cell-based; settings: Human immunodeficiency virus 1, HeLa, read-out: IC50 (nM) Range
Procedure: as §1, §2, §3, §4, §5, §6, §7

[9] = system: isogenic HIV-1 RT mutant virus V106I; assay: HeLa cell assay (HIV-LTR β-galactosidase reporter); assay type: cell-based; settings: Human immunodeficiency virus 1, HeLa, read-out: IC50 (nM) Range
Procedure: as §1, §2, §3, §4, §5, §6, §7

[10] = system: isogenic HIV-1 RT mutant virus K103N/P225H; assay: HeLa cell assay (HIV-LTR β-galactosidase reporter); assay type: cell-based; settings: Human immunodeficiency virus 1, HeLa, read-out: IC50 (nM) Range
Procedure: as §1, §2, §3, §4, §5, §6, §7

[11] = system: isogenic HIV-1 RT mutant virus K103N; assay: HeLa cell assay (HIV-LTR β-galactosidase reporter); assay type: cell-based; settings: Human immunodeficiency virus 1, HeLa, read-out: IC50 (nM) Range
Procedure: as §1, §2, §3, §4, §5, §6, §7

[12] = system: isogenic HIV-1 RT mutant virus K103N/V108I; assay: HeLa cell assay (HIV-LTR β-galactosidase reporter); assay type: cell-based; settings: Human immunodeficiency virus 1, HeLa, read-out: IC50 (nM) Range
Procedure: as §1, §2, §3, §4, §5, §6, §7

[13] = system: isogenic HIV-1 RT mutant virus V106A/Y181C; assay: HeLa cell assay (HIV-LTR β-galactosidase reporter); assay type: cell-based; settings: Human immunodeficiency virus 1, HeLa, read-out: IC50 (nM) Range
Procedure: as §1, §2, §3, §4, §5, §6, §7

[14] = system: isogenic HIV-1 RT mutant virus L100I; assay: HeLa cell assay (HIV-LTR β-galactosidase reporter); assay type: cell-based; settings: Human immunodeficiency virus 1, HeLa, read-out: IC50 (nM) Range
Procedure: as §1, §2, §3, §4, §5, §6, §7

[15] = system: isogenic HIV-1 RT mutant virus V108I; assay: HeLa cell assay (HIV-LTR β-galactosidase reporter); assay type: cell-based; settings: Human immunodeficiency virus 1, HeLa, read-out: IC50 (nM) Range
Procedure: as §1, §2, §3, §4, §5, §6, §7

NEV-R = assay: MT4 cell assay, antiviral HIV activity (propidium iodide); assay type: cell-based; settings: Human immunodeficiency virus 1, MT4, read-out: IC50 (nM) Range

Row | SMILES | IC50 (WTRVA) [nM] | IC50 [1] [nM] | IC50 [2] [nM] | IC50 [3] [nM] | IC50 [4] [nM] | IC50 [5] [nM] | IC50 [6] [nM] | IC50 [7] [nM] | IC50 [8] [nM] | IC50 [9] [nM] | IC50 [10] [nM] | IC50 [11] [nM] | IC50 [12] [nM] | IC50 [13] [nM] | IC50 [14] [nM] | IC50 [15] [nM] | IC50 (NEV-R) [nM]
1 | Cc1cc(C#N)cc(C(=O)c2cc(Cl)ccc2OCC(=O)Nc2cnc(S(N)(=O)=O)cc2C)c1 [Compound 587] | < 10 | < 10 | < 10 | 11 to 100 | < 10 | < 10 | < 10 | < 10 | < 10 | < 10 | < 10 | < 10 | < 10 | < 10 | < 10 | < 10 | < 10
2 | Cc1cc(S(N)(=O)=O)ccc1NC(=O)COc1ccc(Cl)cc1C(=O)c1cc(F)cc(C(F)(F)F)c1 [Compound 78] | < 10 | 11 to 100 | < 10 |  | 11 to 100 | < 10 | < 10 | < 10 | < 10 |  | < 10 | < 10 | < 10 | 11 to 100 | < 10 | < 10 | < 10
3 | Cc1cc2cn[nH]c2cc1NC(=O)COc1ccc(Cl)cc1C(=O)c1cccc(C#N)c1 [Compound 453] | < 10 | < 10 | < 10 | 11 to 100 | 11 to 100 | < 10 | < 10 | < 10 | 11 to 100 | < 10 | < 10 | < 10 | < 10 | 11 to 100 | < 10 | 101 to 1000 | < 10
4 | Cc1cc(C)cc(C(=O)c2cc(Cl)ccc2OCC(=O)Nc2ccc(S(N)(=O)=O)cc2C)c1 [Compound 478] | < 10 | < 10 | < 10 | < 10 | < 10 | < 10 | < 10 | < 10 | < 10 | < 10 | < 10 | < 10 | < 10 | < 10 | < 10 | < 10 | < 10
5 | Cc1cc(S(N)(=O)=O)ccc1NC(=O)COc1ccc(Cl)cc1C(=O)c1cc(F)cc(F)c1 [Compound 62] | < 10 | < 10 | < 10 | 11 to 100 | 11 to 100 | 11 to 100 | < 10 | < 10 | 11 to 100 | < 10 | < 10 | < 10 | < 10 | 11 to 100 | < 10 | < 10 | < 10
6 | Cc1cc(C#N)cc(C(=O)c2cc(Cl)ccc2OCC(=O)Nc2ccc(S(N)(=O)=O)nc2C)c1 [Compound 503] | < 10 | < 10 | < 10 | < 10 | < 10 | < 10 | < 10 | < 10 | < 10 | < 10 | < 10 | < 10 | < 10 | < 10 | < 10 | < 10 | < 10
7 | Cc1cc(C#N)cc(C(=O)c2cc(Cl)ccc2OCC(=O)Nc2ccc(S(N)(=O)=O)cc2C)c1 [Compound 564] | < 10 | < 10 | < 10 | < 10 | < 10 | < 10 | < 10 | < 10 | < 10 | < 10 | < 10 | < 10 | < 10 | < 10 | < 10 |  | < 10
8 | Cc1cc(C#N)cc(C(=O)c2cc(Cl)ccc2OCC(=O)Nc2ccc(OCCCN3CC=CC3)cc2C)c1 [Compound 593] | < 10 | < 10 | < 10 | 11 to 100 | < 10 | < 10 | < 10 | < 10 | < 10 | < 10 | < 10 | < 10 | < 10 | < 10 | < 10 | < 10 | < 10
9 | Cc1cc(OCCCS(N)(=O)=O)ccc1NC(=O)COc1ccc(Cl)cc1C(=O)c1cc(F)cc(C(F)(F)F)c1 [Compound 257] | < 10 | < 10 | < 10 | 11 to 100 | 11 to 100 | < 10 | < 10 | < 10 | < 10 | < 10 | < 10 | < 10 | < 10 | 11 to 100 | < 10 | < 10 | < 10
10 | Cc1cc(S(N)(=O)=O)ccc1NC(=O)COc1ccc(Cl)cc1C(=O)c1cccc(C#N)c1 [Compound 448] |  | < 10 | < 10 | 11 to 100 | 11 to 100 | 11 to 100 | < 10 | < 10 | 11 to 100 | < 10 | < 10 | < 10 | < 10 | 11 to 100 | < 10 | < 10 | < 10
11 | Cc1cc(S(N)(=O)=O)ccc1NC(=O)COc1ccc(Cl)cc1C(=O)c1cccc(C#N)n1 [Compound 637] | < 10 | < 10 | < 10 | < 10 | < 10 | < 10 | < 10 | < 10 | < 10 | < 10 | < 10 | < 10 | < 10 | < 10 | < 10 |  | < 10
